The values below come from PMC8286840, “Identifying SARS-CoV-2 antiviral compounds by screening for small molecule inhibitors of Nsp3 papain-like protease” (Biochemical Journal, 2021).

For test [1], the target named is T1, SARS-CoV-2 PLpro (nsp3 1564–1878) (Severe acute respiratory syndrome coronavirus 2, UniProt P0DTD1). The test is described as follows: biochemical. Particulars: high concentration screen, read-out: % of control remaining. More on the design: FRET-quenched peptide (Pro3) cleavage by PLpro, 10 min pre-incubation, slope over 20 min, normalised to no-compound control.

Test [2] has as its target T1, SARS-CoV-2 PLpro (nsp3 1564–1878). The test can be described thus: biochemical. The following applies: low concentration screen, read-out: % of control remaining. More on the design: FRET-quenched peptide (Pro3) cleavage by PLpro, 10 min pre-incubation, slope over 20 min, normalised to no-compound control.

Counter-ions that a name gives are not always drawn. Like-named read-outs stand apart in the source and are kept apart here.

With `Nc1ccn([C@@H]2O[C@H](COP(=O)(O)O)[C@@H](O)[C@H]2O)c(=O)n1` [5'-Cytidylic acid], the remaining activity at 3.75 µM in test [1] (Well no.=8883) was 86.7%. Besides, in test [2] (Well no.=8883), the remaining activity at 1.25 µM turned out to be 83.4%.
For the compound `C[C@H]1O[C@@H](n2cnc3c(N)ncnc32)[C@H](O)[C@@H]1O` [5'-Deoxyadenosine], the remaining activity at 3.75 µM in test [1] (Well no.=7251) turned out to be 99%; in test [1] (Well no.=7904), 94.7%. Also, the remaining activity at 1.25 µM was determined as 97.6% in test [2] (Well no.=7251) and 91.4% in test [2] (Well no.=7904).
As to `CSC[C@H]1O[C@@H](n2cnc3c(N)ncnc32)[C@H](O)[C@@H]1O` [5'-Methylthioadenosine], the remaining activity at 3.75 µM in test [1] (Well no.=6295) stood at 103%; in test [1] (Well no.=7812), 106%. Also, the remaining activity at 1.25 µM in test [2] (Well no.=6295) was 102%; in test [2] (Well no.=7812), 105%.
`CCNC(=O)[C@H]1O[C@@H](n2cnc3c(N)ncnc32)[C@H](O)[C@@H]1O` [5'-N-Ethylcarboxamidoadenosine]: the remaining activity at 3.75 µM stood at 96% in test [1] (Well no.=694), 96.2% in test [1] (Well no.=7950) and 102% in test [1] (Well no.=8119). In addition, the remaining activity at 1.25 µM in test [2] (Well no.=694) came out at 97.5%; in test [2] (Well no.=7950), 95.4%; in test [2] (Well no.=8119), 104%.
`CNC(=O)[C@H]1O[C@@H](n2cnc3c(N)ncnc32)[C@H](O)[C@@H]1O` [5'-N-Methyl carboxamidoadenosine]: in test [1] (Well no.=14), the remaining activity at 3.75 µM was determined as 98%. Further, the remaining activity at 1.25 µM in test [2] (Well no.=14) was 101%.
On to `CCCCC/C=C\C\C=C/C=C/C=C/[C@@H](O)[C@@H](O)CCCC(=O)O` [5(S),6(R)-DIHETE], for which the remaining activity at 3.75 µM in test [1] (Well no.=4373) stood at 103%. Moreover, in test [2] (Well no.=4373), the remaining activity at 1.25 µM was 106%.
On to `CCCCC/C=C\C/C=C\C/C=C\C=C\[C@H](CCCC(=O)O)OO` [5(S)-HPETE], for which the remaining activity at 3.75 µM in test [1] (Well no.=4327) stood at 103%. In addition, the remaining activity at 1.25 µM in test [2] (Well no.=4327) came to 106%.
With `CCCCCCCC/C=C\C/C=C\C/C=C\CCCC(=O)O` [5(Z), 8(Z), 11(Z)-Eicosatrienoic Acid], the remaining activity at 3.75 µM in test [1] (Well no.=4303) is 103%; in test [1] (Well no.=4594), 100%. For the same compound, the figures for the remaining activity at 1.25 µM in test [2] (Well no.=4303) and in test [2] (Well no.=4594) were 104% and 98.9%, respectively.
As for `CCCCCCCCCCC/C=C\C/C=C\CCCC(=O)O` [5(Z), 8(Z)-Eicosadienoic acid], in test [1] (Well no.=4410), the remaining activity at 3.75 µM was found to be 92.4%. The remaining activity at 1.25 µM in test [2] (Well no.=4410) was 93.6%.
On to `CCCCCCCCCCCCCC/C=C\CCCC(=O)O` [5(Z)-Eicosenoic acid], for which the remaining activity at 3.75 µM in test [1] (Well no.=4408) stood at 92.5%. The remaining activity at 1.25 µM in test [2] (Well no.=4408) amounted to 101%.
Regarding `CC1(C)CCC=[N+]1[O-]` [5,5-Dimethyl-1-pyrroline-N-oxide], the remaining activity at 3.75 µM in test [1] (Well no.=501) was 97.1%. The remaining activity at 1.25 µM in test [2] (Well no.=501) is 97%.
As for `O=C1NC(=O)C(c2ccccc2)(c2ccccc2)N1` [5,5-Diphenylhydantoin], the remaining activity at 3.75 µM in test [1] (Well no.=641) amounted to 98.3%. Further, in test [2] (Well no.=641), the remaining activity at 1.25 µM is 99.8%.
As for `COc1cc(/C=C/c2ccccc2)oc(=O)c1` [5,6-Dehydrokawain], in test [1] (Well no.=3559), the remaining activity at 3.75 µM came out at 103%. For the same compound, the remaining activity at 1.25 µM in test [2] (Well no.=3559) came to 105%.
For `CCCCC/C=C\C/C=C\C/C=C\C[C@H]1O[C@H]1CCCC(=O)O` [5,6-Epoxyeicosatrienoic acid], the remaining activity at 3.75 µM in test [1] (Well no.=4383) is 103%. Besides, in test [2] (Well no.=4383), the remaining activity at 1.25 µM came out at 105%.
With `O=C(O)c1cc(=O)c2c(Cl)cc(Cl)cc2[nH]1` [5,7-Dichlorokynurenic acid], the remaining activity at 3.75 µM in test [1] (Well no.=546) is 97.5%. Moreover, the remaining activity at 1.25 µM in test [2] (Well no.=546) is 95.2%.
Regarding `COc1c(O)cc2oc(-c3ccc(O)cc3)cc(=O)c2c1O` [5,7-dihydroxy-2-(4-hydroxyphenyl)-6-methoxy-4H-chromen-4-one], the remaining activity at 3.75 µM in test [1] (Well no.=5542) was 102%. Moreover, in test [2] (Well no.=5542), the remaining activity at 1.25 µM came out at 101%.
Consider `CCCCCC#CCC#CCC#CCC#CCCCC(=O)O` [5,8,11,14-Eicosatetraynoic acid], for which, in test [1] (Well no.=4472), the remaining activity at 3.75 µM was found to be 97.4%. The remaining activity at 1.25 µM in test [2] (Well no.=4472) was found to be 98.7%.
For the compound `CCCCCCCCC#CCC#CCC#CCCCC(=O)O` [5,8,11-Eicosatriynoic acid], the results for the remaining activity at 3.75 µM in test [1] (Well no.=411) and in test [1] (Well no.=4470) were 97.5% and 92.3%, respectively. Besides, the remaining activity at 1.25 µM in test [2] (Well no.=411) was 101%; in test [2] (Well no.=4470) it was 96.8%.
In the case of `CN(C)C(=O)Oc1cc(OC(=O)N(C)C)cc(C(O)CNC(C)(C)C)c1` (stereo not drawn) [5-(2-(tert-butylamino)-1-hydroxyethyl)-1,3-phenylene bis(dimethylcarbamate) hydrochloride], in test [1] (Well no.=5871), the remaining activity at 3.75 µM is 103%. The remaining activity at 1.25 µM in test [2] (Well no.=5871) amounted to 104%.
As to `O=C1OC(CN2CCOCC2)CN1/N=C/c1ccc([N+](=O)[O-])o1` (stereo not drawn) [5-(4-morpholinylmethyl)-3-{[(E)-(5-nitro-2-furyl)methylidene]amino}-1,3-oxazolidin-2-one], in test [1] (Well no.=6079), the remaining activity at 3.75 µM is 98.7%. Also, the remaining activity at 1.25 µM in test [2] (Well no.=6079) is 99.9%.
In the case of `c1cc(-c2cnn3cc(-c4ccc(N5CCNCC5)cc4)cnc23)c2cccnc2c1` [5-(6-(4-(piperazin-1-yl)phenyl)pyrazolo[1,5-a]pyrimidin-3-yl)quinoline], the remaining activity at 3.75 µM in test [1] (Well no.=6009) stood at 101%. Further, the remaining activity at 1.25 µM in test [2] (Well no.=6009) is 104%.
In the case of `FC(F)(F)c1ccc(CNc2ccc(Cc3c[nH]c4ncccc34)cn2)cc1` [5-((1H-pyrrolo[2,3-b]pyridin-3-yl)methyl)-N-(4-(trifluoromethyl)benzyl)pyridin-2-amine], the remaining activity at 3.75 µM in test [1] (Well no.=6012) was 102%. In test [2] (Well no.=6012), the remaining activity at 1.25 µM turned out to be 104%.
Regarding `CN(C)c1nc(N)c(C(=O)NC(=N)N)nc1Cl` [5-(N,N-Dimethyl)amiloride hydrochloride], the remaining activity at 3.75 µM in test [1] (Well no.=63) is 99%. Moreover, the remaining activity at 1.25 µM in test [2] (Well no.=63) is 102%.
As for `NC(N)=NC(=O)c1nc(Cl)c(N2CCCCCC2)nc1N` [5-(N,N-hexamethylene)amiloride], in test [1] (Well no.=106), the remaining activity at 3.75 µM was found to be 104%. Also, in test [2] (Well no.=106), the remaining activity at 1.25 µM came to 104%.
For the compound `CCN(c1nc(N)c(C(=O)NC(=N)N)nc1Cl)C(C)C` [5-(N-Ethyl-N-isopropyl)amiloride], in test [1] (Well no.=203), the remaining activity at 3.75 µM is 97.3%. Besides, in test [2] (Well no.=203), the remaining activity at 1.25 µM was 99.7%.
With `CC(C)CN(C)c1nc(N)c(C(=O)N=C(N)N)nc1Cl` [5-(N-Methyl-N-isobutyl)amiloride], the remaining activity at 3.75 µM in test [1] (Well no.=209) turned out to be 100%. Besides, the remaining activity at 1.25 µM in test [2] (Well no.=209) is 99.9%.
For `O=C1NC(=O)C(Cc2ccc3cc(OCc4ccccc4F)ccc3c2)S1` (stereo not drawn) [5-({6-[(2-fluorobenzyl)oxy]-2-naphthyl}methyl)-1,3-thiazolidine-2,4-dione], in test [1] (Well no.=5872), the remaining activity at 3.75 µM turned out to be 97.8%. Also, the remaining activity at 1.25 µM in test [2] (Well no.=5872) was determined as 104%.
